Experiment [1] concerns E1α subunit of immunoprecipitated PDH complex. Description: 2D-gel isoelectric focusing and Western blot with E1α-specific mAb to follow phosphorylation of immunoprecipitated PDH. The following applies: pH gradient 10 to 3; compared with untreated enzyme.
The subject of experiment [2] is T1, immunocaptured human heart PDH complex.
T1 construct: tissue Analytic Biological Services, Inc; host or cells: human heart mitochondria, lauryl maltoside solubilized, captured on anti-E2 mAb plates
Description: Immunocapture microplate PDH activity assay (NADH production) with known inhibitors and activators. In kind it is biochemical. The following applies: agent added to wells with already immunocaptured PDH; unmodified human heart PDH control = 100%. How it is done:
FIG. 3 is a graph summarizing the results of tests for specific inhibition and activation of immunocaptured PDH activity. Known inhibitors and activators as shown were added directly to wells of microtiter plates and incubated with already immunocaptured PDH. Activity of the complex was monitored by measuring production of NADH per min/mg mitochondrial protein. Unmodified activity of human heart PDH (control) was set to 100%.
96-well ELISA plates (Falcon Probind) were coated with Goat-anti-mouse IgG Fc specific antibody (0.5 μg/well) in PBS buffer overnight at 4° C. After 3 washings, wells were coated with monoclonal anti-PDH-E2 subunit at 0.5 μg/well and incubated for 1-2 hours at room temperature. The wells were washed 3-4 times and covered with a 0.5% bovine serum albumin solution for 1 hour to minimize non-specific protein binding to the wells. After blocking, wells were washed 5 times and 100 μl of solubilized mitochondria applied and incubated in the wells at room temperature for 1 hour. After incubation, the supernatant was collected and reapplied to a second antibody-covered plate to test for residual activity.
100 μl/well of the reaction mixture (50 mM Tris, pH 7.5; 2 mM β-NAD+, 225 μM TPP, 2 mM pyruvate, 150 μM Coenzyme A, 2.6 mM cysteine, 1 mM MgCl2) was applied and NADH production was monitored either spectrophotometrically at […] or by measuring fluorescence in the presence of 15 μM resazurin and 0.5 U/ml diaphorase using an excitation wavelength of 530 nm and an emission wavelength of 590 nm for up to […]. […] Activity was calculated as nMol NADH/min/mg of mitochondrial protein.
Monoclonal anti-E2 antibodies were attached to 96-well microplates to which had been prebound goat anti-mouse IgG Fc mAbs, as described in Materials and Methods. […] Unbound protein was removed by extensive washings and NADH production then measured by the increase of absorbance at 340 nm or by coupled fluorescence assay, in the presence of NAD+, pyruvate, CoA, TPP, MgCl2, and cysteine as a reducing agent in 50 mM Tris-HCl buffer pH 7.8. […]

Entries after “also recorded” stand apart in the source; their conditions may differ.

In the case of `Nc1ncnc2c1ncn2[C@@H]1O[C@H](COP(=O)(O)OP(=O)(O)OP(=O)(O)O)[C@@H](O)[C@H]1O` [ATP], in experiment [1], the “Level of phosphorylation of E1α (isoelectric point shift)” value is “greatly increased the level of phosphorylation; also recorded: increases the phosphorylation patterns of E1α”. Further, in experiment [2], the “Inhibition of immunocaptured PDH activity” value is “about 70%”. In the case of `O=C(O)C(Cl)Cl` [Dichloroacetate], the “Increase of PDH activity” value in experiment [2] was found to be 34%.

On to `O=[As]O` [sodium arsenite], for which the “Inhibition of immunocaptured PDH activity” value in experiment [2] is more than 98%.

(Values after US20050239143A1, “Immunocapture-based measurements of mammalian pyruvate dehydrogenase complex” (priority 2002, published 2005).)
